Source: patent US20240158408A1, “Nitrogen-Containing Heterocyclic Compound, Pharmaceutical Compositions thereof and Use thereof” (280 Bio, Inc., priority 2022, published 2024)
Read-outs that look alike come from different tables or passages of the source.

Target: PI3Kα (Homo sapiens (Human), UniProt P42336)
Test: ADP-Glo Kinase Assay, PI3Kα enzyme activity inhibition
Conditions: for IC50: PI3Kaα IC50, ADP-Glo
[1] = ADP-Glo, ATP 25 μM, PIP2 50 μg/mL, 1 hour at room temperature
[2] = ATP 25 μM, PIP2 50 μg/mL, 1 hour at room temperature

Chain of PI3Kα (P42336 whole entry): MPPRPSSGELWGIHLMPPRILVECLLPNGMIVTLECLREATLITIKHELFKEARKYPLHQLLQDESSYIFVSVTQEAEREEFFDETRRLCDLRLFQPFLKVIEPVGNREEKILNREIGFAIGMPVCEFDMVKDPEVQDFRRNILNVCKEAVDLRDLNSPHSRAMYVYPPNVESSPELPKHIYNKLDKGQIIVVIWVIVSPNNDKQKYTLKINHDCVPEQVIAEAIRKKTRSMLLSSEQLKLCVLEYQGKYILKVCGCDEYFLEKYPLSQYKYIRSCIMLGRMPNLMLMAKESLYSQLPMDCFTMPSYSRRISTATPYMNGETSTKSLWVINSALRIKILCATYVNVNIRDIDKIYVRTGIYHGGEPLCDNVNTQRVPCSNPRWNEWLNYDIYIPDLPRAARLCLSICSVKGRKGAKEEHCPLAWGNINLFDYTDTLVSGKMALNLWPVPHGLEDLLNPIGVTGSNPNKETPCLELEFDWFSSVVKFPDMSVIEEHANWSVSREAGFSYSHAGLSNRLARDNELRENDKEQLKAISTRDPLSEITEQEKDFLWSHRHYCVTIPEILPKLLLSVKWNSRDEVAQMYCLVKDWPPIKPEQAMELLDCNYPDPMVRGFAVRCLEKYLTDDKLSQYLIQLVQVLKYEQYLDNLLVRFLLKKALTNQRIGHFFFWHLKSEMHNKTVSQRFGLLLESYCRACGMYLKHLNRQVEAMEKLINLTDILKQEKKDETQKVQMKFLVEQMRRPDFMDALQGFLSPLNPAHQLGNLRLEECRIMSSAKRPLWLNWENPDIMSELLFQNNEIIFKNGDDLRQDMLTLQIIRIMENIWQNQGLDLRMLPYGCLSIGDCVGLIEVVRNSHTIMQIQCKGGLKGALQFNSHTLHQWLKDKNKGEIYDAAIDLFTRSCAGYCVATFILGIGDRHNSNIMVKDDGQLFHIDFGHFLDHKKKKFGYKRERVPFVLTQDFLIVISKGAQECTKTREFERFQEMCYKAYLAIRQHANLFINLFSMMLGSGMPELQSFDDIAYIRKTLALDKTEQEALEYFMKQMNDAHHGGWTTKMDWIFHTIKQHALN
Chain of PI3Kα (P27986 whole entry partner): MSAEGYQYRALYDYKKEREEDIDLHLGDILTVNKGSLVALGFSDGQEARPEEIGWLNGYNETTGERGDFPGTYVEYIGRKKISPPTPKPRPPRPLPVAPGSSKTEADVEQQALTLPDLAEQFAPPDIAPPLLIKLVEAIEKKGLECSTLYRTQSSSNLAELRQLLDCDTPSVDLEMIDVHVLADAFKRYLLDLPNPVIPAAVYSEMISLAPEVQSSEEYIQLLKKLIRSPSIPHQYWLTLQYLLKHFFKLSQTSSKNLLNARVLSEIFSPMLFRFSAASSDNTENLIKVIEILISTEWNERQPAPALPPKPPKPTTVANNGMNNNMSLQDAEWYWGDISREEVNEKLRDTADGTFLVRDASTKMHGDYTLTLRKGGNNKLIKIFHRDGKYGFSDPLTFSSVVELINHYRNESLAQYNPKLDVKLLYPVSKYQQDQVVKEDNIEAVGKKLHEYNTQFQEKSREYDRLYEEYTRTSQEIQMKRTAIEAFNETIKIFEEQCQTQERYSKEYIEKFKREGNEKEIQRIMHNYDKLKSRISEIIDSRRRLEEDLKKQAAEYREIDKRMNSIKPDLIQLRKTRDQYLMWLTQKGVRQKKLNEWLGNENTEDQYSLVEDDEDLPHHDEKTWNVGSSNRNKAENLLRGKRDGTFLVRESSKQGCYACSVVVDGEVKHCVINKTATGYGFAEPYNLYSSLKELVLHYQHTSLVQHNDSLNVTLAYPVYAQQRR
Protocol: The ADP-Glo Kinase Assay Kit was used for the experiments. The following buffer solutions were prepared: 50 mM HEPES, pH 7.5, 3 mM MgCl2, 1 mM EGTA, 100 mM NaCl, 0.03% CHAPS, 2 mM DTT. The tested compound samples were dissolved in DMSO and added to the screening system at a certain starting concentration of, for example, 10 μM, diluted 3-fold, while setting a DMSO control and an unkinase control. […] The reaction system was reacted at room temperature for 1 hour, then terminated by adding a terminal reagent (ADP-Glo reagent, 5 μL), and the ADP content in the system was detected using a detection reagent (Kinase Detection Reagent, 10 μL). Signal data was collected using the Envision instrument. Calculated the % inhibition according to the following formula: % inhibition=(DMSO control signal value−sample signal value)! (DMSO control signal value −unkinase control signal value).

| SMILES | PI3Kaα IC50 [1] | other results |
| --- | --- | --- |
| O=C(Nc1cc(NC2CCOCC2)c2c3c1C(c1cc(F)ccc1Cl)NC(=O)N3CC2)c1cc(F)cc(C(F)(F)F)c1 (stereo not drawn) [YL028] | ++ (++ represents 250 nM<IC50<=10 μM) | – |
| C#Cc1c(-c2cc(NC(=O)c3cc(F)cc(C(F)(F)F)c3)c3c4c2CCN4C(=O)NC3c2cc(F)ccc2Cl)ccc2ncnn12 (stereo not drawn) [YL140] | +++ (+++ represents IC50>10 μM) | – |
| Nc1cc(NC(=O)c2cc(F)cc(C(F)(F)F)c2)c2c3c1CCN3C(=O)NC2c1cccc2ccccc12 (stereo not drawn) [YL060] | +++ (+++ represents IC50>10 μM) | – |
| O=C1NC(c2cc(F)ccc2Cl)c2c(Nc3nccc4c(C(F)(F)F)cc(F)cc34)cc(F)c3c2N1CC3 (stereo not drawn) [YL045] | +++ (+++ represents IC50>10 μM) | – |
| O=C(Nc1cc(NC2COC2)c2c3c1C(c1cc(F)ccc1Cl)NC(=O)N3CC2)c1cc(F)cc(C(F)(F)F)c1 (stereo not drawn) [YL027] | ++ (++ represents 250 nM<IC50<=10 μM) | – |
| Nc1cc(-c2nc3cc(Cl)c(Cl)cc3[nH]2)c2c3c1CCN3C(=O)NC2c1cc(F)ccc1Cl (stereo not drawn) [YL100] | – | IC50 [2]: 0.25 to 10 µM |
| Cn1nc2c(-c3cn[nH]c3F)cc(NC(=O)c3cc(F)cc(C(F)(F)F)c3)c3c2c1C(=O)NC3c1cc(F)ccc1Cl (stereo not drawn) [YL113] | +++ (+++ represents IC50>10 μM) | – |
| O=C(Nc1cc(-c2ccn[nH]2)c2c3c1C(c1cc(F)ccc1Cl)NC(=O)N3CC2)c1cc(F)cc(C(F)(F)F)c1 (stereo not drawn) [YL054] | ++ (++ represents 250 nM<IC50<=10 μM) | – |
| N=C(N)Nc1cc(NC(=O)c2cc(F)cc(C(F)(F)F)c2)c2c3c1CCN3C(=O)NC2c1cc(F)ccc1Cl (stereo not drawn) [YL088] | – | IC50 [2]: 0.25 to 10 µM |
| O=C(Nc1cc(Br)c2c3c1C(c1cc(Cl)ccc1Cl)NC(=O)N3CC2)c1cc(F)cc(C(F)(F)F)c1 (stereo not drawn) [YL093] | – | IC50 [2]: 0.25 to 10 µM |
| O=C(Nc1cc(-c2nn(Cc3ccccc3)cc2F)c2c3c1C(c1cc(F)ccc1Cl)NC(=O)N3CC2)c1cc(F)cc(C(F)(F)F)c1 (stereo not drawn) [YL061] | +++ (+++ represents IC50>10 μM) | – |
| O=C(Nc1cc(Nc2cnn(C3CCOCC3)c2)c2c3c1C(c1cc(F)ccc1Cl)NC(=O)N3CC2)c1cc(F)cc(C(F)(F)F)c1 (stereo not drawn) [YL023] | ++ (++ represents 250 nM<IC50<=10 μM) | – |
| Cc1nc[nH]c1-c1cc(NC(=O)c2cc(F)cc(C(F)(F)F)c2)c2c3c1CCN3C(=O)NC2c1cc(F)ccc1Cl (stereo not drawn) [YL068] | ++ (++ represents 250 nM<IC50<=10 μM) | – |
| O=C(Nc1cc(Br)c2c3c1C(c1cccc(F)c1)NC(=O)N3CC2)c1cc(F)cc(C(F)(F)F)c1 (stereo not drawn) [YL062] | +++ (+++ represents IC50>10 μM) | – |
| Nc1cc(NC(=O)c2cc(F)cc(C(F)(F)F)c2)c2c3c1CCN3C(=O)NC2c1cc(Cl)ccc1Cl (stereo not drawn) [YL094] | – | IC50 [2]: 0.25 to 10 µM |
| N#Cc1ccc(-c2cc(NC(=O)c3cc(F)cc(C(F)(F)F)c3)c3c4c2CCN4C(=O)NC3c2cc(Cl)ccc2Cl)c(N)n1 (stereo not drawn) [YL130] | +++ (+++ represents IC50>10 μM) | – |
| Cc1ccccc1C1NC(=O)c2cccc3ccc(NC(=O)c4csc5ccccc45)c1c23 (stereo not drawn) [YL004] | +++ (+++ represents IC50>10 μM) | – |

| SMILES | PI3Kaα IC50 [1] | other results |
| --- | --- | --- |
| Cc1n[nH]c(C(F)(F)F)c1-c1cc(NC(=O)c2cc(F)cc(C(F)(F)F)c2)c2c3c1CCN3C(=O)NC2c1cc(F)ccc1Cl (stereo not drawn) [YL072] | ++ (++ represents 250 nM<IC50<=10 μM) | – |
| O=C(Nc1cc(Br)c2c3c1C(c1cc(F)ccc1Cl)NC(=O)N3CC2)c1cc(F)cc(C(F)(F)F)c1 (single isomer, unassigned) [YL079-P2] | – | IC50 [2]: 0.25 to 10 µM |
| N#Cc1c(N)cccc1-c1cc(NC(=O)c2cc(F)cc(C(F)(F)F)c2)c2c3c1CCN3C(=O)NC2c1cc(Cl)ccc1Cl (stereo not drawn) [YL132] | +++ (+++ represents IC50>10 μM) | – |
| N#Cc1cc(NC(=O)c2cc(F)cc(C(F)(F)F)c2)c2c3c1CCN3C(=O)NC2c1cc(Cl)ccc1Cl (single isomer, unassigned) [YL101-P1] | – | IC50 [2]: > 10 µM |
| Nc1cc(Nc2nccc3c(C(F)(F)F)cc(F)cc23)c2c3c1CCN3C(=O)NC2c1cc(F)ccc1Cl (stereo not drawn) [YL086] | – | IC50 [2]: 0.25 to 10 µM |
| N#Cc1c(-c2cc(NC(=O)c3cc(F)cc(C(F)(F)F)c3)c3c4c2CCN4C(=O)NC3c2cc(F)ccc2Cl)ccc2[nH]ncc12 (stereo not drawn) [YL142] | +++ (+++ represents IC50>10 μM) | – |
| N#Cc1c(N)cccc1-c1cc(NC(=O)c2cc(F)cc(C(F)(F)F)c2)c2c3c1CCN3C(=O)NC2c1cc(F)ccc1Cl (stereo not drawn) [YL133] | +++ (+++ represents IC50>10 μM) | – |
| N#Cc1cc(NC(=O)c2cc(F)cc(C(F)(F)F)c2)c2c3c1CCN3C(=O)NC2c1cc(Cl)ccc1Cl (single isomer, unassigned) [YL101-P2] | +++ (+++ represents IC50>10 μM) | – |
| Nc1cc(-c2nc3c(F)cc(C(F)(F)F)cc3[nH]2)c2c3c1CCN3C(=O)NC2c1cc(F)ccc1Cl (stereo not drawn) [YL092] | – | IC50 [2]: 0.25 to 10 µM |
| O=C(Nc1cc(-c2ccc3ncnn3c2C(F)(F)F)c2c3c1C(c1cc(F)ccc1Cl)NC(=O)N3CC2)c1cc(F)cc(C(F)(F)F)c1 (stereo not drawn) [YL145] | +++ (+++ represents IC50>10 μM) | – |
| O=C(Nc1cc(-c2c[nH]c3ncc(C(F)(F)F)cc23)c2c3c1C(c1cc(F)ccc1Cl)NC(=O)N3CC2)c1cc(F)cc(C(F)(F)F)c1 (stereo not drawn) [YL036] | ++ (++ represents 250 nM<IC50<=10 μM) | – |
| O=C(Nc1cc(Br)c2c3c1C(c1cc(F)ccc1Br)NC(=O)N3CC2)c1cc(F)cc(C(F)(F)F)c1 (stereo not drawn) [YL063] | ++ (++ represents 250 nM<IC50<=10 μM) | – |
| Nc1n[nH]cc1-c1cc(NC(=O)c2cc(F)cc(C(F)(F)F)c2)c2c3c1CCN3C(=O)NC2c1cc(F)ccc1Cl (stereo not drawn) [YL073] | – | IC50 [2]: 0.25 to 10 µM |
| N#Cc1cc(N)ncc1-c1cc(NC(=O)c2cc(F)cc(C(F)(F)F)c2)c2c3c1CCN3C(=O)NC2c1cc(F)ccc1Cl (stereo not drawn) [YL152] | +++ (+++ represents IC50>10 μM) | – |
| CCn1nc2ccc(NC(=O)c3cc(F)cc(C(F)(F)F)c3)c3c2c1C(=O)NC3c1cc(F)ccc1Cl (stereo not drawn) [YL115] | – | PI3Kaα IC50: +++ (key: +represents IC50<=250 nM; ++ represents 250 nM<IC50<=10 μM; +++ represents IC50>10 μM) |
| O=C(Nc1cc(NC2CC2)c2c3c1C(c1cc(F)ccc1Cl)NC(=O)N3CC2)c1cc(F)cc(C(F)(F)F)c1 (stereo not drawn) [YL022] | ++ (++ represents 250 nM<IC50<=10 μM) | – |
